The text below walks through data of patent US12473295B2, “Substituted straight chain spiro derivatives” (Janssen Pharmaceutica NV, priority 2019, dated 2025).

Structures can show the parent of a compound that is named as a salt.

The IC50 is the concentration at which inhibition is half-maximal. A higher IC50 goes with a need for much substance.

For the experiment, the target named is menin/MLL (terbium chelate-labeled menin, FITC-MBM1 peptide) (Homo sapiens (Human), UniProt O00255). As to the kind of experiment: Menin/MLL homogenous time-resolved fluorescence (HTRF) assay.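 Note: IC50 from percent inhibition of HTRF signal, normalized between wells without competitor and wells with a saturating competitor that displaces FITC-MBM1 from His-tagged menin.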 The class given is binding. As to conditions: HTRF-30 min incubation IC50, 30 min incubation.
menin/MLL (terbium chelate-labeled menin, FITC-MBM1 peptide), sequence (O00255 other isoform, or with tags, fused parts or gaps): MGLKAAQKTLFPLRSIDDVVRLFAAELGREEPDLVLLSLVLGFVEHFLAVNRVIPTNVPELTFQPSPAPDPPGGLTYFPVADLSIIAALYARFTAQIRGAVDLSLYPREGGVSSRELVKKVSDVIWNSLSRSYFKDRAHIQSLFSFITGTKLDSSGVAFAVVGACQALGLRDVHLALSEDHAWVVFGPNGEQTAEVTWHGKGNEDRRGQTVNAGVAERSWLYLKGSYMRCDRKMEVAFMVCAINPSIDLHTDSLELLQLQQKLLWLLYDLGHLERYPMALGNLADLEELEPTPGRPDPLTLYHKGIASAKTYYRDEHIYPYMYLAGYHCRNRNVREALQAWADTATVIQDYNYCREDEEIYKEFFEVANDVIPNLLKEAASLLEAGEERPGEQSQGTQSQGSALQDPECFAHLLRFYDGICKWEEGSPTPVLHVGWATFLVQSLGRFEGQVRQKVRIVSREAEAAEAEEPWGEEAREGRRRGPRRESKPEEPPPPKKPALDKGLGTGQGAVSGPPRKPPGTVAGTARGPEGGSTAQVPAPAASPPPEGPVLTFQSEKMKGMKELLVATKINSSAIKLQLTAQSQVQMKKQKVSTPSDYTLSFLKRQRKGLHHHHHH

`COCCN(C)CCC[C@@H](C(C)C)N1CC2(CCN(c3ccnnc3Oc3ccc(F)cc3C(=O)N(C(C)C)C(C)C)C2)C1` (single isomer, unassigned) [Compound 89, (*S)-5-fluoro-N,N-isopropyl-2-((4-(2-(6-((2-methoxyethyl)(methyl)amino)-methylhexan-3-yl)-2,6-diazaspiro[3.4]octan-6-yl)pyridazin-3-yl)oxy)benzamide oxalate] displayed an IC50 of 3.79 nM.
`COCCNCCC[C@@H](C(C)C)N1CC2(CCN(c3ncnnc3Oc3ccc(F)cc3C(=O)N(C(C)C)C(C)C)C2)C1` (single isomer, unassigned) [Compound 100, (*S)-5-fluoro-N,N-isopropyl-2-((5-(2-(6-((2-methoxyethyl)amino)-2-methylhexan-3-yl)-2,6-diazaspiro[3.4]octan-6-yl)-1,2,4-triazin-6-yl)oxy)benzamide oxalate] displayed an IC50 of 2.05 nM.
With `CCN(C(=O)c1cc(F)ccc1Oc1nncnc1N1CCC2(C1)CN([C@@H](CCCCN(C)C)C(C)C)C2)C(C)C` (single isomer, unassigned) [Compound 212] the figure was 9.45 nM; with `CCN(C(=O)c1cc(F)ccc1Oc1nncnc1N1CCC2(C1)CN([C@H](C[C@@H](C)CN(C)CCOC)C(C)C)C2)C(C)C` (single isomer, unassigned) [Compound 240, N-ethyl-5-fluoro-N-isopropyl-2-((5-(2-((3*R,5*R)-6-((2-methoxyethyl)(methyl)amino)-2,5-dimethylhexan-3-yl)-2,6-diazaspiro[3.4]octan-6-yl)-1,2,4-triazin-6-yl)oxy)benzamide fumarate], 12.3 nM.
With `CCN(C(=O)c1cc(F)ccc1Oc1nncnc1N1CCC2(C1)CN([C@@H](C[C@H](C)CN(C)CCOC)C(C)C)C2)C(C)C` (single isomer, unassigned) [Compound 243, N-ethyl-5-fluoro-N-isopropyl-2-((5-(2-((3*S,5*S)-6-((2-methoxyethyl)(methyl)amino)-2,5-dimethylhexan-3-yl)-2,6-diazaspiro[3.4]octan-6-yl)-1,2,4-triazin-6-yl)oxy)benzamide fumarate] the figure was 7.39 nM; with `CCN(C(=O)c1cc(F)ccc1Oc1nncnc1N1CCC2(C1)CN([C@@H](C[C@H](O)CN(C)C(C)C)C(C)C)C2)C(C)C` (single isomer, unassigned) [Compound 324, N-ethyl-5-fluoro-2-((5-(2-((3*S,5*S)-5-hydroxy-6-(isopropyl(methyl)amino)-2-methylhexan-3-yl)-2,6-diazaspiro[3.4]octan-6-yl)-1,2,4-triazin-6-yl)oxy)-N-isopropylbenzamide fumarate], 18.4 nM; with `CCN(C(=O)c1cc(F)ccc1Oc1nncnc1N1CCC2(C1)CN([C@@H](C[C@@H](O)CN(C)C(C)C)C(C)C)C2)C(C)C` (single isomer, unassigned) [Compound 326, N-ethyl-5-fluoro-2-((5-(2-((3*S,5*R)-5-hydroxy-6-(isopropyl(methyl)amino)-2-methylhexan-3-yl)-2,6-diazaspiro[3.4]octan-6-yl)-1,2,4-triazin-6-yl)oxy)-N-isopropylbenzamide fumarate], 18.5 nM.
As to `CCN(CC)C[C@@H](O)C[C@@H](C(C)C)N1CC2(CCN(c3ncnnc3Oc3ccc(F)cc3C(=O)N(CC)C(C)C)C2)C1` (single isomer, unassigned) [Compound 335, 2-((5-(2-((3*S,5*S)-6-diethylamino)-5-hydroxy-2-methylhexan-3-yl)-2,6-diazaspiro[3.4]octan-6-yl)-1,2,4-triazin-6-yl)oxy)-N-ethyl-5-fluoro-N-isopropylbenzamide fumarate], it took 5.49 nM to reach half-maximal inhibition (IC50). Compared with the last compound, the IC50 is about 3.4-fold lower.
Then `CCN(C(=O)c1cc(F)ccc1Oc1nncnc1N1CCC2(C1)CN([C@@H](C[C@H](O)CN(C)CCOC)C(C)C)C2)C(C)C` (single isomer, unassigned) [Compound 353, N-ethyl-5-fluoro-2-((5-(2-((3*S,5S)-5-hydroxy-6-((2-methoxyethyl)(methyl)amino)-2-methylhexan-3-yl)-2,6-diazaspiro[3.4]octan-6-yl)-1,2,4-triazin-6-yl)oxy)-N-isopropylbenzamide fumarate], with 4.19 nM; and `CCN(C(=O)c1cc(F)ccc1Oc1nncnc1N1CCC2(C1)CN([C@@H](C[C@@H](O)CN(C)CCOC)C(C)C)C2)C(C)C` (single isomer, unassigned) [Compound 357, N-ethyl-5-fluoro-2-((5-(2-((3*S,5R)-5-hydroxy-6-((2-methoxyethyl)(methyl)amino)-2-methylhexan-3-yl)-2,6-diazaspiro[3.4]octan-6-yl)-1,2,4-triazin-6-yl)oxy)-N-isopropylbenzamide fumarate], with 7.77 nM.
With `CC(C)[C@H](C[C@@H](O)CN(C)C)N1CC2(CCN(c3ncnnc3Oc3ccc(F)cc3C(=O)N(C(C)C)C(C)C)C2)C1` (single isomer, unassigned) [Compound 370, 2-((5-(2-((3*S,5*R)-6-(dimethylamino)-5-hydroxy-2-methylhexan-3-yl)-2,6-diazaspiro[3.4]octan-6-yl)-1,2,4-triazin-6-yl)oxy)-5-fluoro-N,N-diisopropylbenzamide fumarate] the figure was 5.42 nM; with `CCN(C(=O)c1cc(F)ccc1Oc1nncnc1N1CCC2(C1)CN([C@@H](C[C@@H](CN(C)C)OC)C(C)C)C2)C(C)C` (single isomer, unassigned) [Compound 377, 2-((5-(2-((3*S,5*R)-6-(dimethylamino)-5-methoxy-2-methylhexan-3-yl)-2,6-diazaspiro[3.4]octan-6-yl)-1,2,4-triazin-6-yl)oxy)-N-ethyl-5-fluoro-N-isopropylbenzamide fumarate], 15.4 nM; with `CCN(C(=O)c1cc(F)ccc1Oc1nncnc1N1CCC2(C1)CN([C@@H](C[C@H](CN(C)C)OC)C(C)C)C2)C(C)C` (single isomer, unassigned) [Compound 378, 2-((5-(2-((3*S,5*R)-6-(dimethylamino)-5-methoxy-2-methylhexan-3-yl)-2,6-diazaspiro[3.4]octan-6-yl)-1,2,4-triazin-6-yl)oxy)-N-ethyl-5-fluoro-N-isopropylbenzamide fumarate], 27.3 nM.
Then `CCN(C)C[C@H](C[C@@H](C(C)C)N1CC2(CCN(c3ncnnc3Oc3ccc(F)cc3C(=O)N(CC)C(C)C)C2)C1)OC` (single isomer, unassigned) [Compound 379, N-ethyl-2-((5-(2-((3*S,5*S)-6-(ethyl(methyl)amino)-5-methoxy-2-methylhexan-3-yl)-2,6-diazaspiro[3.4]octan-6-yl)-1,2,4-triazin-6-yl)oxy)-5-fluoro-N-isopropylbenzamide], with 14.2 nM; and `CCN(C)C[C@@H](C[C@@H](C(C)C)N1CC2(CCN(c3ncnnc3Oc3ccc(F)cc3C(=O)N(CC)C(C)C)C2)C1)OC` (single isomer, unassigned) [Compound 380, N-ethyl-2-((5-(2-((3*S,5*R)-6-(ethyl(methyl)amino)-5-methoxy-2-methylhexan-3-yl)-2,6-diazaspiro[3.4]octan-6-yl)-1,2,4-triazin-6-yl)oxy)-5-fluoro-N-isopropylbenzamide], with 40.5 nM.
